Measurements published in US10344052B2, “Targeting peptides and uses thereof” (Health Research, Inc., priority 2013, dated 2019).

System: ADT-perturbed human prostate cancer vasculature
Experiment: In vivo selection of Ph.D.-12 phage display library against ADT-perturbed human prostate cancer xenografts, NextGen sequencing of recovered phage
Settings: CaP Tissue Specimen 1; xenograft in SCID mouse, 72 h after ADT
Protocol: Male SCID mice were castrated and pre-implanted with silastic tubing to provide sustained-release of testosterone to maintain human serum levels testosterone in the host mouse and to facilitate castration/androgen deprivation (ADT). Human prostate tumor tissue was prepared for transplantation by cutting the radical prostatectomy surgical remnant in ViaSpan into approximately 1.0 mm^3 to 2.0 mm^3 wedges. Tissue was transplanted, into individual incisions in the skin; four pieces of tissue were transplanted on each flank of mice anesthetized with isoflurane. Each piece of tumor tissue was dipped into Matrigel, inserted into an incision, and the incisions closed with tissue glue.
Anastamosis of the human vasculature of the prostate cancer xenografts to the host mouse vascular system occurred between Days 5 and 6 after tissue transplantation, and the vasculature had stabilized by Day 21 after transplantation.
Seventy-two hours after initiation of ADT, the host mouse was anesthetized with acepromazine/ketamine/xylazine and the peptide-phage display library introduced systemically by intra-cardiac injection into the right ventricle. The Ph.D.-12 phage library (NEB, Ipswich, Mass.) was injected at a concentration of 1.2×10^11 pfu in 100 μL. The phage library was allowed to circulate through the mouse host for 15 minutes. At the conclusion of the incubation the vascular volume was replaced by perfusion (40 ml) with PBS to remove unbound phage. […] The xenografts were excised and placed into an eppendorf tube containing 0.5 mL phage elution buffer (0.2 M Glycine-HCl pH 2.2, 0.5% BSA) and the xenografts homogenized with a rotor/stator homogenizer on ice. The phage containing homogenate was cleared by centrifugation at 20,800×G for 5 minutes, and neutralization buffer (Tris-HCl pH 9.1) added to the supernatant. The concentration of phage in the eluate was established by titration: serial 10-fold dilutions of the neutralized phage eluate (10 μl) were added to 200 μL of a mid-log culture of host bacteria (ER2738), the cells/phage mixed with 3.5 mL of molten top agar (48° C.), and plated onto LB. Plates were incubated at 37° C. overnight and blue plaques were counted for determination of pfu. Based on the pfu, an aliquot of the neutralized phage eluate that contained a standardized number of phage was amplified by addition to a 20 mL flask of LB/Tet inoculated with 200 μL of an overnight culture of ER2738, and the culture incubated for 4 hours. The culture was cleared of bacteria by centrifugation, the supernatant treated with ⅙ volume of PEG/NaCl (20% (w/v) PEG-8000, 2.5M NaCl), refrigerated overnight for phage precipitation, and phage recovered by centrifugation. The final phage pellet was resuspended in […] of TBS and titered (as described above). For all in vivo selections the input phage held constant at 1.2×10^11 phage per mouse.
Following the third sequential round of in vivo selection against tissue from a single patient, the recovered phage population was titered, diluted and plated at a concentration to yield approximately 100 plaques per plate. Individual plaques were picked and amplified for conventional DNA sequencing to verify that a diversity of peptides was selected. Subsequently, the region of the phage genome that contained the random peptides embedded in the pIII protein were amplified by PCR from all selected phage libraries in preparation for Next Gen Sequencing. PCR primers were designed that flanked the hyper-variable region of the phage genome, the region containing the peptide inserted into the pIII protein: (FWD:—3gIII: 5′-CCTTTCTATTCTCACTCTGCT-3′ (SEQ ID NO:98); REV:—155gIII: 5′-CCGTAACACTGAGTTTCGTCA-3′ (SEQ ID NO:99)). The amplified segments were the templates for the NextGen DNA sequencing process. Templates were quantified and concentrations normalized and underwent 454 Next Gen sequencing using 500 ng of amplified template DNA at a concentration of […]. […]

Row | Sequence | Recovery of Candidate Peptides Percent of Total Phage After 3 Cycles of Selection [%]
1 | AETVESCLAKSH | 0.99
2 | HSAQPVKSKAWL | 0.3
3 | GAMHLPWHMGT | 0.21
4 | SPHWQPNAI | 3.29
5 | TLQRTHFPPAFS | 9.58
6 | DQHGFMHIFDL | 0.4
7 | DPKFPQNSHLIT | 0.63
8 | KPPQTNTSAPYLP | 27.3
9 | LLADTTHHRWT | 0.1
10 | TMGFTAPRFPHY | 26.5

Same assay, conditions: CaP Tissue Specimen 2; xenograft in SCID mouse, 72 h after ADT

Row | Sequence | Recovery of Candidate Peptides Percent of Total Phage After 3 Cycles of Selection [%]
11 | AETVESCLAKSH | 0.5
12 | HSAQPVKSKAWL | 0.2
13 | GAMHLPWHMGT | 46.3
14 | SPHWQPNAI | 1.53
15 | TLQRTHFPPAFS | 7.57
16 | DQHGFMHIFDL | 0.1
17 | DPKFPQNSHLIT | 0.35
18 | KPPQTNTSAPYLP | 5.48
19 | LLADTTHHRWT | 0.1
20 | TMGFTAPRFPHY | 4.78

Same assay, conditions: in words

Row | Sequence | recovery
21 | GAMHLPWHMGTL | high recovery

Same assay, conditions: third round of in vivo selection, data of the two tumor specimens combined

Row | Sequence | # clones recovered
22 | TLQRTHFRPAF | 6
23 | TLQRTHFPSG | 47
24 | TMGFTAPRFPAL | 2
25 | SPHWQPNAIFVN | 36
26 | TLQRTHFPPAFP | 3
27 | TLQRTHFPPAFW | 3
28 | TLQRTHFPPA | 30
29 | TLQRTHFSAGVF | 116
30 | TMGFTAPWFPHY | 2
31 | TLQRTLFPPVVS | 14
32 | TLQRTHFPPAFF | 22
33 | KPPQNTSCAFIF | 2
34 | TLQRTHFPPAAG | 3
35 | TMGFTAPRFP | 9
36 | TMGFTAPRFPHM | 2
37 | TLQRTHFPLAFS | 3
38 | TLQRTHFRRRFG | 95
39 | TXGFTAPRFPHY | 47
40 | TLQRTHFPPVVS | 8

Row | Sequence | # clones recovered
41 | TLQRTHFPSGVF | 32
42 | TLQRTHFRPAFR | 21
43 | TMGFTAPRFPLL | 6
44 | TLQRTHFPPGVF | 5
45 | TLQRTLFSAGRF | 32
46 | TLQRTHFPPAFS | 7988
47 | TLQRTHFPRRFR | 6
48 | TMGFTAPRFPHH | 3
49 | TMGLTHSRVRIE | 2
50 | TLQRTHFSPAFS | 4
51 | TLQRTHFPPVVF | 19
52 | TLQRTHFPPAFR | 126
53 | TMGFTAPRFPHL | 4
54 | TLQRIHFPPAFS | 5
55 | KPPQNTSAPYLR | 2
56 | SPHWQPNAILLM | 17
57 | TLQRTLFSAGVF | 9
58 | KPPQNTSAPYLP | 659
59 | TLQRTHFPSGV | 19

Row | Sequence | # clones recovered
60 | TMGFTAPRFPHQ | 8
61 | SPHWQPNAIL | 2
62 | TLQRTHFPSGVS | 14
63 | TLQRTHFSVR | 4
64 | TMGFTAPRFPSV | 2
65 | TMGFTAPRFRIM | 5
66 | TLQRTHFPRLFG | 3
67 | KPPQNTSAPY | 2
68 | TLQRTHFRRRF | 5
69 | TMGFTAPRFPHR | 4
70 | KPPQNTSAPLSS | 3
71 | SPHWQPNAILL | 2
72 | TLQRTHFPPARR | 3
73 | TLQRTHFPRRFG | 3
74 | TMGFTAPRFPHC | 2
75 | TLQRTHFPSA | 6
76 | TMGFTAPRFQHY | 2
77 | TMGFTAPRRGAV | 2
